Changes are numbered by the printed parent chain. pIC50: −log10 of the molar value.
Columns and labels:
Test in all cases: Picrotoxin inhibition of GABA responses, two electrode voltage clamp in Xenopus oocytes
Type in all cases: cell-based
[1] = target: T1, A20′S mutant Drosophila RDL receptor (Drosophila melanogaster, UniProt P25123, A319S)
T1 construct: expressed in transfected cells; host or cells: Xenopus laevis oocytes injected with cRNA
T1 sequence (P25123 45-606 A319S): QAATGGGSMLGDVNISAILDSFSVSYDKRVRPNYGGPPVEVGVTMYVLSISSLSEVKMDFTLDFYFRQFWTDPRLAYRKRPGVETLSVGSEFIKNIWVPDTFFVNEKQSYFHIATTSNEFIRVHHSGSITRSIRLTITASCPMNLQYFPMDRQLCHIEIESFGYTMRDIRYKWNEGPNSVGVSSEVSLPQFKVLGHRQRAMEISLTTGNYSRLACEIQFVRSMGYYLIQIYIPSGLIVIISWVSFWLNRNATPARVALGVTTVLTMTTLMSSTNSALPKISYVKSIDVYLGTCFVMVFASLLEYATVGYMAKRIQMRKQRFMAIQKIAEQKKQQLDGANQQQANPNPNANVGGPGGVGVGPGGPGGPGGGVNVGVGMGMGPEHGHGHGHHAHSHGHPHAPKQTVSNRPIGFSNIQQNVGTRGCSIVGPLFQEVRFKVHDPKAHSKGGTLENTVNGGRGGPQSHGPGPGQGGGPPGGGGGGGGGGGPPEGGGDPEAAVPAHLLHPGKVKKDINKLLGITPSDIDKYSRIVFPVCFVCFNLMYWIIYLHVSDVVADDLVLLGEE
Procedure: (§1) X. laevis oocyte-positive females were purchased from NASCO (Fort Atkinson, Wisconsin, USA) and maintained according to standard methods. Harvested stage V-VI Xenopus oocytes were washed in four changes of ND96 (96 mM NaCl, 2 mM KCl, 1 mM MgCl2, 1 mM CaCl2, 5 mM HEPES, pH 7.5), de-folliculated in 1.5 mg ml^−1 collagenase Type 1A for approximately 2 h, washed again in four changes of ND96 and stored in ND96 containing 2.5 mM sodium pyruvate, 0.7 mM theophylline and […].
(§2) Drosophila RDL subunit cDNA (kindly gifted from N.Millar) was subcloned into pGEMHE for oocyte expression as previously described ([McGonigle and Lummis, 2010], [Millar et al., 1994]). Site directed mutagenesis was performed with the QuikChange mutagenesis kit (Agilent, La Jolla, CA). cRNA was transcribed in vitro from linearised pGEMHE cDNA template using the mMessage mMachine T7 Transcription kit (Ambion, Austin, Texas, USA). Stage V and VI oocytes were injected with 5 ng cRNA, incubated at 18 °C, and currents recorded 18–24 h post-injection.
(§3) Xenopus oocytes were clamped at −60 mV using an OC-725 amplifier (Warner Instruments, Connecticut, USA), Digidata 1322A and the Strathclyde Electrophysiology Software Package (Department of Physiology and Pharmacology, University of Strathclyde, UK), or using the Roboocyte (MultiChannel Systems). Currents were recorded at 5 kHz and filtered at a frequency of 1 kHz. Micro-electrodes were fabricated from borosilicate glass (GC120TF-10, Harvard Apparatus, Edenbridge, Kent, UK) using a one stage horizontal pull (P-87, Sutter Instrument Company, California, USA) and filled with 3 M KCl. Pipette resistances ranged from 1.0 to 2.0 MΩ. Oocytes were perfused with ND96 at a constant rate of 12 ml min^−1. Drug application was via a simple gravity fed system calibrated to run at the same rate.
(§4) Analysis and curve fitting was performed using Prism v5 (GraphPad Software, San Diego, California, USA). Concentration-response data for each oocyte was normalised to the maximum current for that oocyte. The mean and S.E.M. for a series of oocytes were fitted to the four parameter logistic equation in Prism.

[2] = target: T2, N-7′H mutant Drosophila RDL receptor (Drosophila melanogaster, UniProt P25123, N292H); settings: N-7′H RDL
T2 construct: expressed in transfected cells; host or cells: Xenopus laevis oocytes injected with cRNA
T2 sequence (P25123 45-606 N292H): T1 sequence (P25123 45-606 A319S) with N248H, S275A
Procedure: as §1, §2, §3, §4

[3] = target: T3, wild type Drosophila RDL receptor (Drosophila melanogaster, UniProt P25123)
T3 construct: expressed in transfected cells; host or cells: Xenopus laevis oocytes injected with cRNA
T3 sequence (P25123 45-606): T1 sequence (P25123 45-606 A319S) with S275A
Procedure: as §1, §2, §3, §4

For picrotoxin, the pIC50 [1] was 7.34, the “Picrotoxin pIC50” value [1] was 7.33 ± 0.13 and the pIC50 [2] was 6.25. The “Picrotoxin pIC50” value [2] was 6.25 ± 0.64, the pIC50 [3] was 6.74 and the “Picrotoxin pIC50” value [3] was 6.75 ± 0.22.
